Experiment: xn = mol fraction of the nth substance listed
Settings: Liquid

c1ccc2[nH]ccc2c1 [1H-indole] + Cc1ccc2ccccc2c1
specific volume [m3/kg], 100 kPa
Settings	293.15 K	303.15 K	313.15 K	323.15 K	333.15 K	343.15 K	353.15 K
x1 = 0.25	0.0009744	0.0009821	0.0009893	0.0009968	0.001005	0.001013	0.00102
x1 = 0.5	0.0009522	0.0009621	0.0009692	0.0009765	0.0009836	0.0009909	0.0009983
x1 = 0.75	–	0.0009406	0.0009471	0.0009539	0.0009609	0.0009674	0.0009747
x1 = 1	–	–	–	0.0009295	0.000936	0.0009428	0.0009499

specific volume [m3/kg], 333.15 K, Constant-volume piezometry
Settings	x1 = 0.25	x1 = 0.5	x1 = 0.75	x1 = 1
100 kPa	0.001005	0.0009836	0.0009609	0.000936
10000 kPa	0.0009988	0.0009782	0.000956	0.0009315
20000 kPa	0.000993	0.000973	0.0009513	0.0009273
30000 kPa	0.0009876	0.0009679	0.0009467	0.0009228
40000 kPa	0.0009824	0.0009633	0.0009422	0.0009192
50000 kPa	0.0009776	0.0009586	0.0009379	0.0009157
60000 kPa	0.0009732	0.0009544	0.0009341	–
70000 kPa	0.0009685	0.0009504	0.0009304	–
80000 kPa	0.0009645	0.0009464	0.0009267	–
90000 kPa	0.0009607	0.0009427	0.0009233	–
100000 kPa	0.0009569	0.0009391	0.0009198	–
110000 kPa	0.0009533	0.0009358	0.0009167	–
120000 kPa	0.0009497	0.0009325	0.0009134	–
130000 kPa	0.0009464	0.0009292	0.0009104	–
140000 kPa	0.0009432	0.0009262	0.0009077	–
150000 kPa	0.00094	0.0009231	0.0009048	–
160000 kPa	0.0009369	0.0009202	0.000902	–
170000 kPa	0.000934	0.0009174	–	–
180000 kPa	–	0.0009148	–	–
190000 kPa	–	0.0009122	–	–
200000 kPa	–	0.0009095	–	–
210000 kPa	–	0.000907	–	–
220000 kPa	–	0.0009047	–	–
230000 kPa	–	0.0009023	–	–
240000 kPa	–	0.0008999	–	–
250000 kPa	–	0.0008977	–	–
260000 kPa	–	0.0008956	–	–
270000 kPa	–	0.0008934	–	–

From the NIST ThermoML archive (doi:10.1007/s10765-009-0625-z)
